3 compounds from patent US9120820B2, “Fluorescent molecular probes for use in assays that measure test compound competitive binding with SAM-utilizing proteins” (CAYMAN CHEMICAL COMPANY, INCORPORATED, priority 2011, dated 2015) can be followed below.

SMILES strings stand for the structures.

Common to all, as to assay type: biochemical
Test [1] has as its target T1, PRMT4 (Homo sapiens, UniProt Q86X55).
T1 construct: made in house
T1 sequence (Q86X55 1-608): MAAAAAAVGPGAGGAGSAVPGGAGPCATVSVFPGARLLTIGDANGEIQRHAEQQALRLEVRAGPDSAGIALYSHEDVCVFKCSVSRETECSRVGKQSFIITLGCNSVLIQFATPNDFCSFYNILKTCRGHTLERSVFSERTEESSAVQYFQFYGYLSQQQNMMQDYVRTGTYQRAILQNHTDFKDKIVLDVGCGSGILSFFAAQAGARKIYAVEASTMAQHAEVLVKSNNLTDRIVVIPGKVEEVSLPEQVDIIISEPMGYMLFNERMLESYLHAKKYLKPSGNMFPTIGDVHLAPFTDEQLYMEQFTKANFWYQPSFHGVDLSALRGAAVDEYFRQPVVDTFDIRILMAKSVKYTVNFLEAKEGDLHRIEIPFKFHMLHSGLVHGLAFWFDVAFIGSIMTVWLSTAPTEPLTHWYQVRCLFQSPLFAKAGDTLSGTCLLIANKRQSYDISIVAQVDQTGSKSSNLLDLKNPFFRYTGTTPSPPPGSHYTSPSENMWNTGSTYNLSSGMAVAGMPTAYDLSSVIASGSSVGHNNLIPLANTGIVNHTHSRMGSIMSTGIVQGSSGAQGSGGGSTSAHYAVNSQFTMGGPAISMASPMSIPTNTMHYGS
Kind of test: Radiometric methyltransferase assay, PRMT4. The note with it: PRMT4 150 nM; compound 10 μM, 1 μM, or 0.1 μM; FIG. 13. As to the method:
(§1) Reagents: Compound 16A was prepared by the method described in Example 4 and illustrated in FIG. 5. The Compounds 20A-iv and 20A-iii were prepared according to methods described in Example 6 and illustrated in FIG. 7. Enzymes were obtained from the Cayman Catalog with the exception of PRMT4 and PRMT6, which were produced in baculovirus and purified to near homogeneity using Ni-affinity chromatography. Human core histones were purified from HeLa nuclear pellet per the method of Coté et al. S-adenosylmethionine (SAM) was obtained from Sigma-Aldrich (Cat #A7007) and S-[methyl-3H]-SAM was obtained from Perkin-Elmer ([…]). Methods: […] To this was added enzyme diluted to provide a final assay concentration (GLP: 10 nM; PRMT1: 100 nM; SET7/9: 120 nM; PRDM9: 120 nM; PRMT4: 150 nM; PRMT6: 120 nM; G9a: 200 nM) and the compound was allowed to preincubate for 10 minutes at room temperature. […] Samples were mixed immediately after quenching and transferred to a 96-well GFC Uni-Filter microtiter filter plate (Perkin Elmer, Cat#6005174) that contained 50 μl of 20% TCA. Samples were allowed to precipitate for at least 5 minutes at room temperature. The samples were filtered onto the GFC membrane and washed four times with 100 μl of 10% TCA and once with 100 μl of 95% EtOH. To each well was added 25 μl of MicroScint-20 (Perkin-Elmer Cat#6013621) and samples were analyzed using a TopCount NXT microplate scintillation counter. The experiment was performed one time in duplicate for all compound concentrations tested and in triplicate for the vehicle and no enzyme controls. All data was analyzed in GraphPad Prism (v. 5.04).

The target in test [2] is T2, G9a (Homo sapiens, UniProt Q96KQ7).
T2 construct: purchased Cayman 49010353
T2 sequence (Q96KQ7 1-1210): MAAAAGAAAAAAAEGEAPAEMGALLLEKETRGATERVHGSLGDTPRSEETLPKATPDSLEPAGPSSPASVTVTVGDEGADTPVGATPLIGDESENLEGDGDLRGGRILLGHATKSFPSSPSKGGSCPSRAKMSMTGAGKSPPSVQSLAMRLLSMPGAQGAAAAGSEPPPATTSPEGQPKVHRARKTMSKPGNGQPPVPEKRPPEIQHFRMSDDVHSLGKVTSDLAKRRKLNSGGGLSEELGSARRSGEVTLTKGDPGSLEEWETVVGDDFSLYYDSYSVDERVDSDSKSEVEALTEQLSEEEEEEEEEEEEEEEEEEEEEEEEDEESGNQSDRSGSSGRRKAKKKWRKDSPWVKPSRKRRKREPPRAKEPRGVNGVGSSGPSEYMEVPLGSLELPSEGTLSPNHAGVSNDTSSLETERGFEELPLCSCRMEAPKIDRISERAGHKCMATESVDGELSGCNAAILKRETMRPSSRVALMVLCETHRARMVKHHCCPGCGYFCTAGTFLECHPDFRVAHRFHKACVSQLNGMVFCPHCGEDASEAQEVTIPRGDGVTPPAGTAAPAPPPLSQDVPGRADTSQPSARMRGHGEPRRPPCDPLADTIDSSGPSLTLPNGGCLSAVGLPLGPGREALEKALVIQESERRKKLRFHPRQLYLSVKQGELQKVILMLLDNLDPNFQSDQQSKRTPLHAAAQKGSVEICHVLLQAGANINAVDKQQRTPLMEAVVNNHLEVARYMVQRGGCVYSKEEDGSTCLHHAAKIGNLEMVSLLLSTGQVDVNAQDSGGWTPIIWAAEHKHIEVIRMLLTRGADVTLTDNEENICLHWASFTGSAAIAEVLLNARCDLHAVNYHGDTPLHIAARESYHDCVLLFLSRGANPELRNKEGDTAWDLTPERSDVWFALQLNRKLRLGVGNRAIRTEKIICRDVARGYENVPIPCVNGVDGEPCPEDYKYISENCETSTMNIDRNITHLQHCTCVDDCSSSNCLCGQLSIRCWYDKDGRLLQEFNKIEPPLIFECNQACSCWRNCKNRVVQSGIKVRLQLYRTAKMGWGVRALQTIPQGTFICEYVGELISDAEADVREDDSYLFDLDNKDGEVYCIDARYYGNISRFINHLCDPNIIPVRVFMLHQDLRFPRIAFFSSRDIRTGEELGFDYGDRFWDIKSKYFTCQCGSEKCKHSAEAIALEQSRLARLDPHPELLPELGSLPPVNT
Kind of test: Radiometric methyltransferase assay, G9a. The note with it: G9a 200 nM; compound 10 μM, 1 μM, or 0.1 μM; FIG. 13. The protocol:
as §1

Test [3] has as its target T3, PRDM9 (Homo sapiens, UniProt Q9NQV7).
T3 construct: purchased Cayman
Kind of test: Radiometric methyltransferase assay, PRDM9. The note with it: PRDM9 120 nM; compound 10 μM, 1 μM, or 0.1 μM; FIG. 13. The protocol:
as §1

T3 sequence (Q9NQV7 whole entry, species assumed): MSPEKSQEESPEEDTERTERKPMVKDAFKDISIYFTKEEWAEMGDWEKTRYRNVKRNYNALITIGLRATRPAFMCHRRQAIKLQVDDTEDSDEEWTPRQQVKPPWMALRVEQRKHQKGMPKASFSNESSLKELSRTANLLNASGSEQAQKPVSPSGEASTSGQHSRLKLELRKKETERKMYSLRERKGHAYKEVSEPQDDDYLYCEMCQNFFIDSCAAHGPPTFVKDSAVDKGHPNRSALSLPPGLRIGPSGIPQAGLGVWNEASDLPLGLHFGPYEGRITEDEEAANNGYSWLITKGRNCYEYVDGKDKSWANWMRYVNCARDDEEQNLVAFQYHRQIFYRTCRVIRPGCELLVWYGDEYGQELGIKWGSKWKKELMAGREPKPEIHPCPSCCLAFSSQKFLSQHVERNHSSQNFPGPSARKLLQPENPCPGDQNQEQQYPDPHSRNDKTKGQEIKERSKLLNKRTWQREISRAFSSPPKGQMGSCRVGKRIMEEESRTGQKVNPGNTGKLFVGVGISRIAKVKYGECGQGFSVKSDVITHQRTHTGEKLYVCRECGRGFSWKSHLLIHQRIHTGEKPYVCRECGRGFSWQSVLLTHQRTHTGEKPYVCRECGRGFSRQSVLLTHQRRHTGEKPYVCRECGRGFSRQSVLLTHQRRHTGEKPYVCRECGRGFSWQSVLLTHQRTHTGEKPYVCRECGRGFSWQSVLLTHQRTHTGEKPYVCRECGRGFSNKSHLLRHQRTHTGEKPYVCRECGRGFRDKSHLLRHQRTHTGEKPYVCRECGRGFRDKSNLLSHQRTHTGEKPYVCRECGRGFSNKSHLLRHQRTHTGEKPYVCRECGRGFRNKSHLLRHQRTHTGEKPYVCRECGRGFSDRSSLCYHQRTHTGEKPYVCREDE

`CSC[C@H]1O[C@@H](n2cnc3c(N)nc(NCCNC(=O)OC(C)(C)C)nc32)[C@H](O)[C@@H]1O` [Compound 16A, tert-butyl (2-((6-amino-9-((2R,3R,4S,5S)-3,4-dihydroxy-5-((methylthio)methyl)tetrahydrofuran-2-yl)-9H-purin-2-yl)amino)ethyl)carbamate]: the “inhibition of enzymatic activity” value in test [1], in test [2] and in test [3] was “inhibits” in each case.

Take `CCNC[C@H]1O[C@@H](n2cnc3c(N)nc(Cl)nc32)[C@H](O)[C@@H]1O` [Compound 20A-iv, 2-chloroadenosine-5′-N-ethylamine]: the “inhibition of enzymatic activity” value in test [1], in test [2] and in test [3] was “did not show appreciable inhibition” each time.

As to `CCNC(=O)[C@H]1O[C@@H](n2cnc3c(N)nc(Cl)nc32)[C@H](O)[C@@H]1O` [Compound 20A-iii, 2-chloroadenosine-5′-N-ethylcarboxamide], the “inhibition of enzymatic activity” value in test [1], in test [2] and in test [3] was “did not show appreciable inhibition” each time.
